Patent US5521155A, “Amides of teicoplanin compounds” (Gruppo Lepetit S.p.A, priority 1985, dated 1996)
In brackets after ≈: the same amount, converted by molar mass.

Assays:
[1] = Isoelectric point (pI) by isoelectrofocusing with bioautography detection; type: physicochemical; conditions: IEF technique, polyacrylamide gel
Text: The isoelectrofocusing (IEF) technique coupled with bioautography detection has been used for the determination of the pI of representative compounds of the invention using the following materials: AMPHOLINE carrier ampholytes (40% w/v) were purchased from LKB Produketer AB, Bromma, Sweden. Acrylamide, N,N'-methylenbisacrylamide (BIS), N,N,N',N'-tetramethylethylenediamine (TEMED) and ammonium persulfate were from Bio Rad Laboratorie, Richmond, Calif., USA. Glycerol and Antibiotic agar N. 1 (Grove and Randall medium N. 1) were from E. Merck Darmstadt FRG. GEL FIX polyester sheets were purchased from Serva Feinbiochemica Heidelberg. Phenolindo (2,6-dichlorophenol) came from BDH Chemicals Ltd. Poole, England.
IEF was made on gel slab using a LKB MULITPHOR 2117 cell and a Bio-Rad Power Supply Model 1420A. Slabs of 24.5×11.5 cm and 1 mm thickness were prepared on a sheet of GEL FIX. Polyacrylamide gels with a concentration of 8% T and with a cross-linkage of 4% C (30% T stock solution was prepared by dissolving 28.8 g of acrylamide and 1.2 g of bis-acrylamide in 100 ml distilled water), glycerol, 3.5% v/v, 2% AMPHOLINE, 0.05% ammonium persulphate as catalyst and 0.05% TEMED as accelerator. The carrier ampholite composition for 35 ml gelling solution was as follows:
The electrode solutions, as recommended by LKB for the respective pH range, were:
The gel was cooled to 4° C. with the aid of a LKB 2209 refrigerated constant temperature circulator. After prefocusing for 30 min. at 5 W, the samples (20 μl containing 0.2 to 2.5 μg of antibiotic) were loaded into the slot at the cathodic side. Electrofocusing was performed using 10 W constant power and was completed after 3-31/2 hours with a final potential of 1400 V.
The pH values were determined by dividing a portion of the gel into 1 cm sections, and eluting the individual pieces at room temperature with 1 ml of 10 mM KCl prior to pH readings.
The isoelectric point of each antibiotic was determined by interpolation on a curve obtained by plotting pH values versus the distance from the anode.
Polyacrylamide gel was placed on a 3 mm layer of agar medium N. 1 inoculated with 1% of Bacillus subtilis ATCC 6633 spore (0.5 OD at 600 nm). After 10 min the gel was removed and the plate was incubated overnight at 37° C. and examined for inhibition zones. The contrast between the area of lysis and that of bacterial growth was enhanced by use of Phenolindo(2,6-dichlorophenol) 1% w/v (oxidation-reduction indicator).

S. aureus Tour = test: In vitro antibacterial activity, standard agar-dilution test (MIC); type: cell-based; conditions: inoculum about 10^4 CFU/ml, 18-24 h at 37° C.
Experimental: (§1) The culture medium ISOSENSITEST BROTH (Oxoid) and the colture medium TODD-[…] BROTH (Difco) are used for growing staphylococci and streptococci, respectively. Broth cultures are diluted so that the final inoculum is about 10^4 colony forming units/ml (CFU/ml).

[2] = system: S. epidermidis ATCC 12228; test: as above; type: cell-based; conditions: inoculum about 10^4 CFU/ml, 18-24 h at 37° C.
Experimental: as §1

S. pyogenes C 203 = test: as above; type: cell-based; conditions: inoculum about 10^4 CFU/ml, 18-24 h at 37° C.
Experimental: as §1

[3] = system: Pseudomonas aeruginosa ATCC 10145; test: as above; type: cell-based; conditions: inoculum about 10^4 CFU/ml, 18-24 h at 37° C.
Experimental: as §1

E. coli SKF 12140 = test: as above; type: cell-based; conditions: inoculum about 10^4 CFU/ml, 18-24 h at 37° C.
Experimental: as §1

S. aureus ATCC 6538 = test: as above; type: cell-based; conditions: inoculum about 10^4 CFU/ml, 18-24 h at 37° C.
Experimental: as §1

S. pneumoniae UC 41 = test: as above; type: cell-based; conditions: inoculum about 10^4 CFU/ml, 18-24 h at 37° C.
Experimental: as §1

S. faecalis ATCC 7080 = test: as above; type: cell-based; conditions: inoculum about 10^4 CFU/ml, 18-24 h at 37° C.
Experimental: as §1

[4] = system: Proteus vulgaris X 19H ATCC 881; test: as above; type: cell-based; conditions: inoculum about 10^4 CFU/ml, 18-24 h at 37° C.
Experimental: as §1

S. pyogenes L 49 = test: In vivo test in mice experimentally infected with S. pyogenes L 49 (ED50); conditions: mice infected with S. pyogenes L 49; for ED50, route of administration os.: oral
Acid-base titration (pK) = type: physicochemical; conditions: acid-base titration in METHYLCELLOSOLVE/H2O 4:1 (v/v), 0.01N KOH; for pK1 / pK2: salt form per Table IV
Experimental: The following table (Table IV) reports the acid-base titration data of some representative compounds of the invention. The assays were carried out in METHYLCELLOSOLVE/H2 O, 4:1(v/v). A sample is dissolved in METHYLCELLOSOLVE/H2 O, 4:1(v/v) (10 umole in about 20 ml) and then 0.01N HCl (2 ml) is added and the mixture is titrated with 0.01N KOH in the same solvent mixture.

| Isoelectric point (pI) [1] | MIC S. aureus Tour (S. aureus Tour) [µg/mL] | MIC S. epidermidis ATCC 12228 [2] [µg/mL] | MIC S. pyogenes C 203 (S. pyogenes C 203) [µg/mL] | MIC Pseudomonas aeruginosa ATCC 10145 [3] [µg/mL] | MIC E. coli SKF 12140 (E. coli SKF 12140) [µg/mL] | MIC S. aureus ATCC 6538 (S. aureus ATCC 6538) [µg/mL] | MIC S. pneumoniae UC 41 (S. pneumoniae UC 41) [µg/mL] | MIC S. faecalis ATCC 7080 (S. faecalis ATCC 7080) [µg/mL] | MIC Proteus vulgaris X 19H ATCC 881 [4] [µg/mL] | pK1 (Acid-base titration (pK)) | pK2 (Acid-base titration (pK)) | pK3 (Acid-base titration (pK); value not in brackets) | Structure (SMILES) | ED50, route of administration os. (S. pyogenes L 49) [mg/kg] | ED50, route of administration s.c (S. pyogenes L 49) [mg/kg] |
| --- | --- | --- | --- | --- | --- | --- | --- | --- | --- | --- | --- | --- | --- | --- | --- |
| 8.9 | 0.12 (≈ 0.0807 µM) | 0.06 (≈ 0.0404 µM) | 0.12 (≈ 0.0807 µM) | > 128 | 64 (≈ 43.1 µM) | 0.12 (≈ 0.0807 µM) | 0.25 (≈ 0.168 µM) | 0.25 (≈ 0.168 µM) | > 128 |  |  |  | CC(=O)NC1C(OC2c3ccc(c(Cl)c3)Oc3cc4cc(c3O)Oc3ccc(cc3Cl)CC3NC(=O)C(N)c5ccc(O)c(c5)Oc5cc(O)cc(c5)C(NC3=O)C(=O)NC4C(=O)NC3C(=O)NC2C(=O)NC(C(=O)NCCCN(C)C)c2cc(O)cc(O)c2-c2cc3ccc2O)OC(CO)C(O)C1O (stereo not drawn) [Compound 13] | > 300 | 2.2 |
| 8.0 | 0.5 (≈ 0.33 µM) | 0.12 (≈ 0.0792 µM) | 0.5 (≈ 0.33 µM) | > 128 | > 128 |  | 1 (≈ 0.66 µM) | 0.5 (≈ 0.33 µM) | > 128 | 5.3 | 6.8 |  | CC(=O)NC1C(OC2c3ccc(c(Cl)c3)Oc3cc4cc(c3O)Oc3ccc(cc3Cl)CC3NC(=O)C(N)c5ccc(O)c(c5)Oc5cc(O)cc(c5)C(NC3=O)C(=O)NC4C(=O)NC3C(=O)NC2C(=O)NC(C(=O)NCCN2CCOCC2)c2cc(O)cc(O)c2-c2cc3ccc2O)OC(CO)C(O)C1O (stereo not drawn) [Compound 14] |  |  |
| 8.8 | 0.12 (≈ 0.0927 µM) | 0.016 (≈ 0.0124 µM) | 0.06 (≈ 0.0463 µM) | 64 (≈ 49.4 µM) | 8 (≈ 6.18 µM) |  | 0.12 (≈ 0.0927 µM) | 0.12 (≈ 0.0927 µM) | 64 (≈ 49.4 µM) | 6.4 | 7.8 |  | NC1C(=O)NC2Cc3ccc(c(Cl)c3)Oc3cc4cc(c3O)Oc3ccc(cc3Cl)C(O)C3NC(=O)C(NC(=O)C4NC(=O)C(NC2=O)c2cc(O)cc(c2)Oc2cc1ccc2O)c1ccc(O)c(c1)-c1c(O)cc(O)cc1C(C(=O)NCCN1CCCC1)NC3=O (stereo not drawn) [Compound 22] | > 300 | 1.6 |
| 7.9 | 0.5 (≈ 0.339 µM) | 0.063 (≈ 0.0428 µM) | 0.12 (≈ 0.0815 µM) | > 128 | 64 (≈ 43.4 µM) |  | 0.25 (≈ 0.17 µM) | 0.25 (≈ 0.17 µM) | > 128 | 6.45 |  |  | NC1C(=O)NC2Cc3ccc(c(Cl)c3)Oc3cc4cc(c3O)Oc3ccc(cc3Cl)C(O)C3NC(=O)C(NC(=O)C4NC(=O)C(NC2=O)c2cc(O)cc(c2)Oc2cc1ccc2O)c1ccc(O)c(c1)-c1c(O)cc(O)cc1C(C(=O)NCCCCCC(=O)NC1C(O)OC(CO)C(O)C1O)NC3=O (stereo not drawn) [Compound 31] | > 300 | 2.9 |
|  | 0.06 | 0.06 | 0.12 | 32 | 4 |  | 0.06 | 0.12 | 32 |  | 6.5 | 8.9 | COC(=O)C(CCCCN)NC(=O)C1NC(=O)C2NC(=O)C(NC(=O)C3NC(=O)C4NC(=O)C(Cc5ccc(c(Cl)c5)Oc5cc3cc(c5O)Oc3ccc(cc3Cl)C2O)NC(=O)C(N)c2ccc(O)c(c2)Oc2cc(O)cc4c2)c2ccc(O)c(c2)-c2c(O)cc(O)cc21.Cl.Cl (stereo not drawn) [Compound 73] | > 300 | 0.81 |
| 8.1 | 0.06 | 0.06 | 0.06 | 32 | 8 |  | 0.12 | 0.12 | 64 |  |  |  | Cl.Cl.NC1C(=O)NC2Cc3ccc(c(Cl)c3)Oc3cc4cc(c3O)Oc3ccc(cc3Cl)C(O)C3NC(=O)C(NC(=O)C4NC(=O)C(NC2=O)c2cc(O)cc(c2)Oc2cc1ccc2O)c1ccc(O)c(c1)-c1c(O)cc(O)cc1C(C(=O)NCCCN1CCOCC1)NC3=O (stereo not drawn) [Compound 78] | > 300 | 1.4 |
| 8.9 | 0.12 | 0.06 | 0.06 | 32 | 8 |  | 0.06 | 0.12 | 64 |  |  |  | Cl.Cl.NC1C(=O)NC2Cc3ccc(c(Cl)c3)Oc3cc4cc(c3O)Oc3ccc(cc3Cl)C(O)C3NC(=O)C(NC(=O)C4NC(=O)C(NC2=O)c2cc(O)cc(c2)Oc2cc1ccc2O)c1ccc(O)c(c1)-c1c(O)cc(O)cc1C(C(=O)NC1CN2CCC1CC2)NC3=O (stereo not drawn) [Compound 83] | > 300 | 0.46 |
| 7.8 | 0.12 (≈ 0.0904 µM) | 0.06 (≈ 0.0452 µM) | 0.12 (≈ 0.0904 µM) | > 128 | 64 (≈ 48.2 µM) |  | 0.12 (≈ 0.0904 µM) | 0.12 (≈ 0.0904 µM) | > 128 |  |  |  | NCCCCC(NC(=O)C1NC(=O)C2NC(=O)C(NC(=O)C3NC(=O)C4NC(=O)C(Cc5ccc(c(Cl)c5)Oc5cc3cc(c5O)Oc3ccc(cc3Cl)C2O)NC(=O)C(N)c2ccc(O)c(c2)Oc2cc(O)cc4c2)c2ccc(O)c(c2)-c2c(O)cc(O)cc21)C(=O)O (stereo not drawn) [Compound 84] | > 300 | 1.65 |
| 9.1 | 0.06 (≈ 0.0448 µM) | 0.06 (≈ 0.0448 µM) | 0.06 (≈ 0.0448 µM) | 128 (≈ 95.6 µM) | 16 (≈ 11.9 µM) |  | 0.12 (≈ 0.0896 µM) | 0.12 (≈ 0.0896 µM) | 128 (≈ 95.6 µM) |  |  |  | CN(C)CCCCCCCNC(=O)C1NC(=O)C2NC(=O)C(NC(=O)C3NC(=O)C4NC(=O)C(Cc5ccc(c(Cl)c5)Oc5cc3cc(c5O)Oc3ccc(cc3Cl)C2O)NC(=O)C(N)c2ccc(O)c(c2)Oc2cc(O)cc4c2)c2ccc(O)c(c2)-c2c(O)cc(O)cc21 (stereo not drawn) [Compound 101] |  |  |
